In patent publication US20040154048A1, “Activation of nuclear transfer embryos” (priority 2001, published 2004):
Marks after values point to notes of the source that are not given here.

Assays:
[1] = test system: IVM porcine oocytes; assay: Parthenogenetic activation of IVM porcine oocytes, development to blastocyst; format: cell-based; conditions: 5 μM ionomycin 5 min in mTALP-PVA, 6-DMAP +
Procedure: The preparation of in vitro matured (IVM) oocytes was essentially as described previously (Grupen et al, (1997) Reproduction Fertility Development 9:571-575). Ovaries from slaughtered prepubertal gilts were transported to the laboratory in Dulbecco's PBS supplemented with 0.6% (v/v) of an antibiotic solution (CSL Ltd) containing penicillin (10,000 U mL^−1), streptomycin (10,000 μg mL^−1) and fungizone (25 μg mL^−1) and maintained at 38° C. Antral follicles ([…] in diameter) were aspirated using a 21-gauge needle through which constant suction (1 L min^−1) was applied. The follicular contents were pooled in a collection tube. Cumulus-oocyte complexes (COCs) with at least three uniform layers of compact cumulus cells were recovered from the collected fluid, washed three times in OMM199a, transferred to 50 μl droplets (25 COCs per droplet) of OMM199a covered with mineral oil in a petrie dish (Becton Dickinson and Company, Plymouth, England) and incubated at 38.5° C. in a humidified atmosphere of 5% CO2 in air. After twenty two hours of maturation, expanded COCs were washed once in OMM199 without dibutyryl cAMP (OMM199b), transferred to 50 μl droplets of OMM199b and incubated for a further twenty four hours. At the end of the forty six hours maturation interval, the oocytes were treated with 0.5 mg mL^−1 hyaluronidase for one minute and then gently aspirated with a small bore glass pipette to remove the cumulus cells. Oocytes that had extruded a polar body were washed and kept in culture medium prior to activation.
The experiments hereafter were conducted with oocytes rather than nuclear transfer embryos. These experiments are termed parthenogenetic, since they are done without fertilized embryos. Parthenogenetic experiments are used routinely as a model system to investigate NT, largely because of the expense and additional experimental manipulation involved with NT embryos. Parthenogenetic experiments provide very useful information for the development of NT technology, and are directly predictive of NT outcomes.
Oocytes were activated forty six to forty eight hours after the start of maturation. Denuded oocytes that had extruded a polar body were washed and kept in modified TALP-PVA medium supplemented with 3.0 mM Ca-lactate (mTALP-PVA) for approximately one hour prior to activation. Oocytes were transferred to mTALP-PVA containing 5 μM ionomycin for five minutes. Oocytes were then washed twice and incubated in culture medium containing 2 mM 6-DMAP for three hours. The 6-DMAP treated oocytes were then washed twice and transferred to 50 μl droplets of the culture medium under mineral oil. In the ionomycin * treatment oocytes were not washed in media containing 6-DMAP.

[2] = test system: porcine oocytes; conditions: ionomycin increased from 5 μM to 15 μM, low calcium levels; cited from earlier work

## C[C@H](CCC(=O)O)C[C@H](C)C[C@H](C)C(=O)/C=C(\O)[C@H](C)C[C@H](C)C/C=C/[C@@H](C)[C@@H](O)[C@@H](C)[C@@H](O)C[C@@H]1CC[C@@](C)([C@H]2CC[C@@](C)([C@@H](C)O)O2)O1 [Ionomycin, ionomycin]
[1]
  Percentage developing to blastocyst, Day 6: 49^c %
  Percentage developing to blastocyst, Day 7: 51^c %
[1]; listed as Ionomycin*
  Percentage developing to blastocyst, Day 6: 1^d %
  Percentage developing to blastocyst, Day 7: 1^d %
[2]
  oocytes developing parthenogenetically to blastocyst stage: 23%
